“Also recorded” adds a separate entry of the source.
Key:
FaDu cells = test: CellTiter-Glo Luminescent Cell Viability Assay, Bouvardin with Taxol, FaDu; assay type: cell-based, human
Description: “Combination Index” computation. Combination Indices were calculated using CalcuSyn software (Biosoft), which uses the method of Chou and Talalay. This method first computes drug-induced effect using the Hill Equation: where E is the measured effect; C is the drug concentration; Emax is the full range of drug effect, usually at or near 100%; IC50 is the drug concentration producing the median effect of 50%; and n is the curve shape parameter describing the steepness of the concentration-effect relationship. The Chou and Talalay method then linearizes the Hill Equation by logarithmic transformation as: where fu is the fraction of cells left unaffected after drug exposure, fa is the fraction of cells affected by the exposure, C is the drug concentration used, Cm is the concentration to achieve the median effect, and n is the curve shape parameter. Cm and n are equivalent to IC50 and n, respectively, in the Hill Equation. The values of n (obtained from the slope), nlog(Cm) (obtained from the absolute value of the intercept), and, therefore, Cm are obtained by plotting log(fu−1−1) versus log(C). […]
The growth inhibitory effects of Bouvardin with Taxol were evaluated using CellTiter-Glo® Luminescent Cell Viability Assay (Promega G7570). […] Luminescence of each well was measured using an automated plate reader.

H157 cells = test: MTT assay, Bouvardin with ionizing radiation, H157; assay type: cell-based, human
Description: “Combination Index” computation. Combination Indices were calculated using CalcuSyn software (Biosoft), which uses the method of Chou and Talalay. This method first computes drug-induced effect using the Hill Equation: where E is the measured effect; C is the drug concentration; Emax is the full range of drug effect, usually at or near 100%; IC50 is the drug concentration producing the median effect of 50%; and n is the curve shape parameter describing the steepness of the concentration-effect relationship. The Chou and Talalay method then linearizes the Hill Equation by logarithmic transformation as: where fu is the fraction of cells left unaffected after drug exposure, fa is the fraction of cells affected by the exposure, C is the drug concentration used, Cm is the concentration to achieve the median effect, and n is the curve shape parameter. Cm and n are equivalent to IC50 and n, respectively, in the Hill Equation. The values of n (obtained from the slope), nlog(Cm) (obtained from the absolute value of the intercept), and, therefore, Cm are obtained by plotting log(fu−1−1) versus log(C). These numbers are then used to compute the Combination Index (CI) according to the formula: CI=(D)1/(Dx)1+(D)2/(Dx)2 (26). (Dx)1 and (Dx)2 are the doses required to achieve a given effect level for each treatment, i.e. a specified value of Fraction Affected or Fa. (D)1 and (D)2 are the doses of each treatment in a given combination which gives the same Fa.
In FIG. 16 MTT assays were used to determine the effect of Bouvardin in combination with IR. Cells were either treated with drug for 24 hr prior to irradiation (A and C, ‘pre-treatment’) or drug and radiation were applied on the same day (B and D, ‘same day treatment’). (A & B) Fraction of cells killed or otherwise eliminated (Fraction Affected) at different doses of Bouvardin and 0 or 2 Gy of IR. (C & D) Combination Index (CI) data from two experiments with pre-treatment protocol, to illustrate reproducibility. CIs below 1 indicate synergy.
In the absence of radiation, the drug has an IC50 (Fraction Affected, Fa=0.5) in the nM range ([…], ‘0 Gy’). Fraction Affected is determined by the formula, 1−(x/y), where x is the MTT signal for the experimental sample and y is the MTT signal for the un-treated control. For example, if the MTT signal in the experimental is 30% of the MTT signal in the control, fraction affected is 0.7. Radiation increased the Fa in a dose-dependent manner in the absence of drug. The addition of the drug further increased the Fa for each dose of radiation. This happened whether the drug was added 24 hr before irradiation (pre-treatment, FIGS. 16A,C) or concurrently (same day treatment, FIGS. 16B,D).
The efficiency of Bouvardin in increasing the effect of radiation on cancer cells is measured in terms of Combination Index (CI) as determined by CalcuSyn software according to the method of Chou and Talalay. This method is widely used in biomedical literature and it has been applied to combinations of antitumor drugs. CI values are calculated from Fa values for multiple drug and radiation doses such as those shown in FIGS. 16 A and B. CI computation takes into account the shape of the dose-response curve, the maximal effect, the intercept, and the IC50 values for drug at each dose of radiation and IC50 for radiation at each dose of drug. […]
The growth inhibitory effects of Bouvardin with ionizing radiation (IR) were evaluated using a modified tetrazolium salt (MTT) assay. […]

SMILES: COc1ccc(C[C@H]2C(=O)N[C@H](C)C(=O)N(C)[C@@H]3C(=O)N(C)[C@@H](Cc4ccc(O)c(c4)Oc4ccc(cc4)[C@H]3O)C(=O)N[C@@H](C)C(=O)N[C@H](C)C(=O)N2C)cc1 (stereo in doubt) [Bouvardin, bouvardin]
- Bouvardin concentration up to which synergy was seen when combined with taxol (FaDu cells; Det562 and FaDu (FIG. 18)): up to 0.3 μM
- interaction of Bouvardin with Taxol (FaDu cells; FaDu): synergy with Taxol over a wide range of concentrations
- interaction with radiation in cell-based assays (H157 cells; 0.3 μM of drug): synergistically
- interaction with radiation in cell-based assays (H157 cells; 0.6 μM of drug): additively/antagonistically
- interaction of Bouvardin with radiation (H157 cells; H157): synergy over a wide range of doses; also recorded: synergize
- IC50 (Fraction Affected, Fa=0.5) (H157 cells; H157, in the absence of radiation (0 Gy)): nM range
- interaction of Bouvardin with radiation (H157 cells; H157, listed as bouvardin): synergizes with ionizing radiation

Source: patent publication US20150343016A1, “CHEMICAL ENTITIES AND THERAPEUTIC USES THEREOF” (The Regents of the University of Colorado, a body corporate, priority 2010, published 2015)
